According to patent US8614341B2, “Amorphous silibinin for the treatment of viral hepatitis” (Euromed S.A., priority 2009, dated 2013):

Experiments:
[1] = Storage stability of the amorphous state (XRPD assessment); format: physicochemical; settings: single polyethylene bag, 2 months
Method: For quantitative XRPD assessment ZnO (XRPD spectrum FIG. 3A) was used as internal standard. Three characteristics peaks of crystalline sylibinin (2-theta: 20.7, 22.3 and 24.5°) were chosen for the quantitative determination of the crystalline form and peaks at 2-theta: 56.6 and 62.8° of the internal standard (IS, ZnO) were used as reference as reported in FIG. 3B.
XRPD spectra were obtained using X'Pert diffractometer from PANalytical, using the following parameters for acquisition and data processing:
Silibinin samples obtained according to the present invention were stored at 4±2° C. at 60% R.H., 25±2° C. at 60±5% R.H. and 40±2° C. at 60±5% R.H., in a single polyethylene bag for 2 months. After this time the samples were analyzed by XRPD.

[2] = Solubility (HPLC - Ph. Eur. 01/2007:2071) after 30 min; format: physicochemical
Method: A “silibinin release rate of 80% or greater” means that the amorphous silibinin is at least 80% soluble in aqueous solution (standard according to Ph. Eur.).
Several lots of silibinin manufactured according to the method of the invention, including steps L and M, were analyzed using the XRPD method described in example 2.
Solubility of this product (HPLC—Ph. Eur. 01/2007:2071) after 30 min. is higher than 80%. Conversely the silibinin obtained according to the method of the invention without performing steps L and M, though of high chemical purity is mainly crystalline (typically more than 70% crystalline).
Solubility of this product (HPLC—Ph. Eur. 01/2007:2071) after 30 min. is lower than 80%.

Compound | stability of amorphous state (XRPD) ([1]; 25±2° C. at 60±5% R.H.) | stability of amorphous state (XRPD) ([1]; 4±2° C. at 60% R.H.) | stability of amorphous state (XRPD) ([1]; 40±2° C. at 60±5% R.H.) | Solubility (HPLC - Ph. Eur. 01/2007:2071) [2]
COc1cc(C2Oc3cc(C4Oc5cc(O)cc(O)c5C(=O)C4O)ccc3OC2CO)ccc1O (stereo not drawn) [amorphous silibinin samples, containing about 10% of crystal] [reference compound] | extended crystallization | – | – | –
COc1cc(C2Oc3cc(C4Oc5cc(O)cc(O)c5C(=O)C4O)ccc3OC2CO)ccc1O (stereo not drawn) [amorphous silibinin, silibinin] | stable | stable | stable | higher than 80%
COc1cc(C2Oc3cc(C4Oc5cc(O)cc(O)c5C(=O)C4O)ccc3OC2CO)ccc1O (stereo not drawn) [silibinin obtained without performing steps L and M] [reference compound] | – | – | – | lower than 80%
